Assays:
[1] = biological target: T1, recombinant human JAK1 kinase domain protein (Residues 854-1154) (Homo sapiens, UniProt P23458); experiment: JAK1 biochemical assay (microfluidic mobility shift, peptide phosphorylation); conditions: 25 μM ATP, 1 nM total JAK1; read-out: Enzyme JAK1 Ki
T1 construct: human JAK1 kinase domain protein (Residues 854-1154); purchased Proteros Biostructures GmbH (Martinsried, Germany); host or cells: insect cells
Description: JAK1 and JAK2 Biochemical Assays

[2] = system: JAK1: IL-13-stimulated STAT6 phosphorylation in BEAS-2B cells; experiment: P-STAT6 BEAS-2B+IL-13 Cell Assay; type: cell-based, human; conditions: Homo sapiens, BEAS-2B, IL-13 stimulation, read-out: Cellular JAK1 PSTAT6 BEAS2B + IL13 IC50
Experimental: P-STAT6 BEAS-2B+IL-13 Cell Assay
In order to study the effect of JAK1 inhibitors in a cell line that is relevant to the cell biology of human asthma, an IL-13-stimulated STAT6 phosphorylation assay in the human lung bronchial epithelial BEAS-2B cell line was developed.
BEAS-2B cells (ATCC® CRL-9609™) were grown in Bronchial Epithelial Growth Medium (BEGM) (Lonza Catalog No. CC-3170; Walkersville, Md.; or PromoCell Catalog No. C-21060; Heidelberg, Germany). Test compound stock solutions (0.5 mM in DMSO) were serially diluted 1:2 in DMSO to generate a 10-point concentration curve (at 500×test concentration), which was further diluted by a 50-fold dilution step in BEGM to generate a 10× concentration curve (in 2% DMSO). Cells were plated at 100,000 cells/well in 200 μL of BEGM in 96-well plates and incubated for 48 hours at 37° C. in a humidified incubator. Medium was aspirated from the cells and replaced with 70 μL of fresh BEGM. Diluted test compound (10 μL; or 2% DMSO in assay medium) was added to the cells, and the plates were incubated for 1 hour at 37° C. in a humidified incubator. Twenty μL of 250 ng/mL human recombinant IL-13 (Bio Techne Catalog No. 213-ILB) was then added to the cells and incubated for 15 minutes at 37° C. Medium was aspirated from the cells and 60 μL of ice-cold 1×cell lysis buffer (Cell Signaling Technologies; Catalog No. 9803S) containing 1 mM PMSF was added to the cells. Assay plates were incubated at −80° C. for at least 1 hour. P-STAT6 was measured by coating GAR plates (MSD; Catalog No. L45RA-1) with rabbit anti-human total STAT6 antibody (Cell Signaling Technologies; Catalog No. 9362S), incubating the cell lysates in the coated plates overnight at 4° C., and then detecting with mouse anti-phospho-STAT6 (Tyr641) Clone 16E12 antibody (Millipore; Catalog No. 05-590, custom labeled by MSD with SULFO-tag) using standard MSD plate processing, washing, and detection protocols. Plates were read on the MESO SECTOR S600. Data Analysis
Data analysis was performed by subtracting negative control values from all wells and determining percent of control using the positive control values; the IC50 was determined with a four-parameter logistic fit model as shown in Equation 4.

[3] = Cell cytotoxicity assay HEK-293T (CellTiter-Glo, 72 hours); type: cell-based; conditions: human, HEK-293T cells, read-out: Cytotox K-293 EC50
Description: (§1) Cytotoxicity assays. Hepatocyte toxicity, general cytotoxicity or cytotoxicity of unknown mechanism is an undesirable feature for a potential drug, including inhaled drugs. It may be of benefit for an inhaled JAK1 or JAK1/JAK2 inhibitor to have low intrinsic cytotoxicity against various cell types. Typical cell types used to assess cytotoxicity include both primary cells such as human hepatocytes, and proliferating established cell lines such as Jurkat and HEK-293. […] Methods of measuring cytotoxicity are known in the art. In some embodiments, compounds described herein were tested as follows:
(§2) (a) Jurkat and HEK293T cells were maintained at a sub confluent density in T175 flasks. Cells were plated at 450 cells/45 μl medium in Greiner 384 well black/clear tissue culture treated plates. (Greiner Catalog #781091). After dispensing cells, plates were equilibrated at room temperature for 30 minutes. After 30 minutes at room temperature, cells were incubated overnight at 37° C. in a CO2 and humidity controlled incubator. The following day, cells were treated with compounds diluted in 100% DMSO (final DMSO concentration on cells=0.5%) with a 10 point dose-response curve with a top concentration of 50 μM. Cells and compounds were then incubated for 72 hours overnight at 37° C. in a CO2 and humidity controlled incubator. After 72 hours of incubation, viability was measured using CellTiterGlo® (Promega Catalog #G7572) to all wells. After incubation at room temperature for 20 minutes, plates were read on EnVision™ (Perkin Elmer Life Sciences) using luminescence mode;
(§3) A549 (ATCC® CCL-185™), Jurkat clone E6-1 (ATCC® TIB-152™) and HEK-293T (ATCC® CRL-1573™) cells maintained at a sub-confluent density in T175 flasks were used. Cells in exponential growth phase were plated (450 cells in 45 μL of medium) in Greiner 384-well black/clear tissue culture treated plates (Greiner Catalog No. 781091). After dispensing cells, plates were allowed to equilibrate at room temperature for 30 minutes, after which time the cell plates were placed overnight in a 37° C. CO2 and humidity-controlled incubator. The following day, cells were treated with test agent diluted in 100% DMSO (0.5% final DMSO concentration on cells) with a 10-point titration and a top concentration of 50 μM. Cells and compounds were then incubated for 72 hours in a 37° C. CO2 and humidity-controlled incubator, after which time cell viability was measured by adding CellTiter-Glo® (Promega G7572) reagent to all wells. Plates were incubated at room temperature for 20 minutes and then the well luminescence was read on an EnVision plate reader (Perkin Elmer Life Sciences).

[4] = Cell cytotoxicity assay Jurkat (CellTiter-Glo, 72 hours); type: cell-based; conditions: human, Jurkat clone E6-1 cells, read-out: Cytotox Jurkat EC50
Description: as §1, §2, §3

[5] = Cell cytotoxicity assay A549 (CellTiter-Glo, 72 hours); type: cell-based; conditions: human, A549 cells, read-out: Cytotox A549 EC50
Experimental: as §3

[6] = biological target: Recombinant human JAK2 kinase domain protein (Residues 812-1132) (Homo sapiens, UniProt O60674); experiment: JAK2 biochemical assay (microfluidic mobility shift, peptide phosphorylation); conditions: Enzyme JAK2 Ki (nM), 25 μM ATP, 0.2 nM total JAK2
Chain of Recombinant human JAK2 kinase domain protein (Residues 812-1132) (O60674 812-1132): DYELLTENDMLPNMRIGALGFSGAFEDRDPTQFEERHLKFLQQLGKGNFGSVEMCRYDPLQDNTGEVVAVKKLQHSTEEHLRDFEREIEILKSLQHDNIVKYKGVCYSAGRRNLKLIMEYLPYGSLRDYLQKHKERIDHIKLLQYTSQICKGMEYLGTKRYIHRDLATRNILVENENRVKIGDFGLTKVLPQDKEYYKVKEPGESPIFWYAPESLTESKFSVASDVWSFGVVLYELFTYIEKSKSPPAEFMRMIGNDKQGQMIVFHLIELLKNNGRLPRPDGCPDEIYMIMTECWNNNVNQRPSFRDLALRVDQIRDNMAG

[7] = Table 3, 72 hours, top concentration of 50 μM
[8] = Table 4, methyl-desmethyl analog pairs

T1 sequence (P23458 854-1154): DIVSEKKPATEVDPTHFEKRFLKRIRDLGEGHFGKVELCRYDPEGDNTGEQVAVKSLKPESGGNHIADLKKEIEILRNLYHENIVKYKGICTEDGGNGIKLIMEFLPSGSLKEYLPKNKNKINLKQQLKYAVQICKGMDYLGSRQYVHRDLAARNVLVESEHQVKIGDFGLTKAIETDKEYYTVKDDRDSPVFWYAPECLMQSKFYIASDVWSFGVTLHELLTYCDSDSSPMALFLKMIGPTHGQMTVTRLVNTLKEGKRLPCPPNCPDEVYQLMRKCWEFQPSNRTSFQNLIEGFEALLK

CC(O)C(C)S(=O)(=O)c1ccc(OC(F)F)c(-c2nn(C)cc2NC(=O)c2cnn3cccnc23)c1 (single isomer, unassigned) [Example 68, N-[3-[2-(difluoromethoxy)-5-(2-hydroxy-1-methyl-propyl)sulfonyl-phenyl]-1-methyl-pyrazol-4-yl]pyrazolo[1,5-a]pyrimidine-3-carboxamide]
Ki [1]: 0.6 nM | IC50 [2]: 62 nM | EC50 at 72 h [3, 7]: 19000 nM | EC50 at 72 h [4, 7]: 32000 nM | EC50 at 72 h [5, 7]: ≥ 50000 nM | Ki [6]: 0.25 nM

CS(=O)(=O)c1ccc(OC(F)F)c(-c2n[nH]cc2NC(=O)c2cnn3cccnc23)c1 [Example 4 in WO201708 9390, reference compound]
EC50 at 72 h [3, 8]: 2100 nM | EC50 at 72 h [4, 8]: 6200 nM | EC50 at 72 h [5, 8]: 22000 nM

CCS(=O)(=O)c1ccc(OC(F)F)c(-c2nn(C)cc2NC(=O)c2cnn3cccnc23)c1 [Example 6, N-[3-[2-(difluoromethoxy)-5-ethylsulfonyl-phenyl]-1-methyl-pyrazol-4-yl]pyrazolo[1,5-a]pyrimidine-3-carboxamide]
Ki [1]: 0.48 nM | IC50 [2]: 18 nM | EC50 at 72 h [3, 7]: 6050 nM | EC50 at 72 h [3, 8]: 6050 nM | EC50 at 72 h [4, 7]: 21500 nM | EC50 at 72 h [4, 8]: 21500 nM | EC50 at 72 h [5, 7]: 6750 nM | EC50 at 72 h [5, 8]: 6750 nM

Cn1cc(NC(=O)c2cnn3cccnc23)c(-c2cc(S(=O)(=O)C(F)F)ccc2OC(F)F)n1 [Example 9, N-[3-[2-(difluoromethoxy)-5-(difluoromethylsulfonyl)phenyl]-1-methyl-pyrazol-4-yl]pyrazolo[1,5-a]pyrimidine-3-carboxamide]
Ki [1]: 0.27 nM | IC50 [2]: 15 nM | EC50 at 72 h [3, 7]: 2200 nM | EC50 at 72 h [3, 8]: 2200 nM | EC50 at 72 h [4, 7]: 3500 nM | EC50 at 72 h [4, 8]: 3500 nM | EC50 at 72 h [5, 7]: 1660 nM | EC50 at 72 h [5, 8]: 1660 nM | Ki [6]: 0.18 nM

Cn1cc(NC(=O)c2cnn3cccnc23)c(-c2cc(S(=O)(=O)c3cccc(O)c3)ccc2OC(F)F)n1 [Example 11, N-[3-[2-(difluoromethoxy)-5-(3-hydroxyphenyl)sulfonyl-phenyl]-1-methyl-pyrazol-4-yl]pyrazolo[1,5-a]pyrimidine-3-carboxamide]
Ki [1]: 0.21 nM | IC50 [2]: 17 nM | EC50 at 72 h [3, 7]: 3700 nM | EC50 at 72 h [4, 7]: 5500 nM | EC50 at 72 h [5, 7]: 6400 nM | Ki [6]: 0.12 nM

Cn1cnc(S(=O)(=O)c2ccc(OC(F)F)c(-c3nn(C)cc3NC(=O)c3cnn4cccnc34)c2)c1 [Example 65, N-[3-[2-(difluoromethoxy)-5-(1-methylimidazol-4-yl)sulfonyl-phenyl]-1-methyl-pyrazol-4-yl]pyrazolo[1,5-a]pyrimidine-3-carboxamide]
Ki [1]: 0.72 nM | IC50 [2]: 72 nM | Ki [6]: 0.24 nM

Cn1cc(NC(=O)c2cnn3cccnc23)c(-c2cc(S(=O)(=O)c3c[nH]cn3)ccc2OC(F)F)n1 [Example 66, N-[3-[2-(difluoromethoxy)-5-(1H-imidazol-4-ylsulfonyl)phenyl]-1-methyl-pyrazol-4-yl]pyrazolo[1,5-a]pyrimidine-3-carboxamide]
Ki [1]: 0.55 nM | IC50 [2]: 380 nM | Ki [6]: 0.18 nM

Cn1cc(NC(=O)c2cnn3cccnc23)c(-c2cc(S(=O)(=O)c3cncnc3)ccc2OC(F)F)n1 [Example 67, N-[3-[2-(difluoromethoxy)-5-pyrimidin-5-ylsulfonyl-phenyl]-1-methyl-pyrazol-4-yl]pyrazolo[1,5-a]pyrimidine-3-carboxamide]
Ki [1]: 0.48 nM | IC50 [2]: 25 nM | Ki [6]: 0.24 nM

CN1CCC[C@H]1Cn1cc(NC(=O)c2cnn3cccnc23)c(-c2cc(S(C)(=O)=O)ccc2OC(F)F)n1 [Example 72, N-[3-[2-(difluoromethoxy)-5-methylsulfonyl-phenyl]-1-[[(2S)-1-methylpyrrolidin-2-yl]methyl]pyrazol-4-yl]pyrazolo[1,5-a]pyrimidine-3-carboxamide]
Ki [1]: 0.94 nM | IC50 [2]: 31 nM | EC50 at 72 h [3, 7]: 20000 nM | EC50 at 72 h [4, 7]: 49000 nM | EC50 at 72 h [5, 7]: ≥ 50000 nM | Ki [6]: 1.5 nM

CCS(=O)(=O)c1ccc(OC(F)F)c(-c2n[nH]cc2NC(=O)c2cnn3cccnc23)c1 [Example. 192 in WO201708 9390, reference compound]
EC50 at 72 h [3, 8]: 437 nM | EC50 at 72 h [4, 8]: 790 nM | EC50 at 72 h [5, 8]: 2370 nM

O=C(Nc1c[nH]nc1-c1cc(S(=O)(=O)C(F)F)ccc1OC(F)F)c1cnn2cccnc12 [reference compound]
EC50 at 72 h [3, 8]: 38 nM | EC50 at 72 h [4, 8]: 160 nM | EC50 at 72 h [5, 8]: 260 nM

Source: patent publication US11453671B2, “Pyrazolopyrimidine inhibitors of JAK kinases and uses thereof” (Genentech, Inc., priority 2020, dated 2022)
